pIC50: −log10 of the molar value.
What was measured:
[1] = system: NCI-H460; test: Induction of apoptosis in human NCI-H460 cells assessed as total apoptotic cells at 0.8 uM incubated for 48 hrs by Annexin V-FITC/PI staining based flow cytometry (reference value: 6.85 %); assay type: functional
[2] = system: NCI-H460; test: Induction of apoptosis in human NCI-H460 cells assessed as total apoptotic cells at 80 uM incubated for 48 hrs by Annexin V-FITC/PI staining based flow cytometry (reference value: 6.85 %); assay type: functional
[3] = system: NCI-H460; test: Induction of apoptosis in human NCI-H460 cells assessed as […] cells at 0.8 uM incubated for 48 hrs by Annexin V-FITC/PI staining based flow cytometry (reference value: 4.31 to 4.76 %); assay type: functional
[4] = system: 786-0; test: Anticancer activity against human 786-0 cells incubated for 48 hrs by MTT assay; assay type: functional, cell-based; conditions: 786-0, 48 h
[5] = system: NCI-H460; test: Induction of apoptosis in human NCI-H460 cells assessed as […] cells at 80 uM incubated for 48 hrs by Annexin V-FITC/PI staining based flow cytometry (reference value: 2.17 to 2.38 %); assay type: functional
[6] = system: NCI-H460; test: Induction of apoptosis in human NCI-H460 cells assessed as viable cells at 80 uM incubated for 48 hrs by Annexin V-FITC/PI staining based flow cytometry (reference value: 92.82 to 93.46 %); assay type: functional; conditions: read-out: Activity
[7] = system: PC-9; test: Anticancer activity against human PC-9 cells incubated for 48 hrs by MTT assay; assay type: functional, cell-based; conditions: PC-9, 48 h
[8] = system: NCI-H460; test: Induction of apoptosis in human NCI-H460 cells assessed as […] cells at 8 uM incubated for 48 hrs by Annexin V-FITC/PI staining based flow cytometry (reference value: 2.17 to 2.38 %); assay type: functional
[9] = Cytotoxicity against human HEK-293T cells incubated for 48 hrs by MTT assay; assay type: toxicity, cell-based
[10] = system: NCI-H460; test: Induction of apoptosis in human NCI-H460 cells assessed as necrotic cells at 8 uM incubated for 48 hrs by Annexin V-FITC/PI staining based flow cytometry (reference value: 0.02 to 0.06 %); assay type: functional
[11] = Cytotoxicity against human WI-38 cells incubated for 48 hrs by MTT assay; assay type: toxicity, cell-based
[12] = system: NCI-H460; test: Induction of apoptosis in human NCI-H460 cells assessed as total apoptotic cells at 8 uM incubated for 48 hrs by Annexin V-FITC/PI staining based flow cytometry (reference value: 6.85 %); assay type: functional
[13] = Selectivity index, ratio of IC50 for human WI-38 cells to IC50 for human Calu-1 cells; assay type: toxicity; conditions: WI-38 cells versus Calu-1 cells, read-out: Ratio IC50
[14] = system: SK-BR-3; test: Anticancer activity against human SK-BR-3 cells incubated for 48 hrs by MTT assay; assay type: functional, cell-based; conditions: SK-BR-3, 48 h
[15] = Selectivity index, ratio of IC50 for human MCF-10A cells to IC50 for human SK-BR-3 cells; assay type: toxicity; conditions: MCF-10A cells versus SK-BR-3 cells, read-out: Ratio IC50
[16] = Selectivity index, ratio of IC50 for human WI-38 cells to IC50 for human H460 cells; assay type: toxicity; conditions: WI-38 cells versus H460 cells, read-out: Ratio IC50
[17] = system: NCI-H460; test: Induction of apoptosis in human NCI-H460 cells assessed as necrotic cells at 0.8 uM incubated for 48 hrs by Annexin V-FITC/PI staining based flow cytometry (reference value: 0.02 to 0.06 %); assay type: functional
[18] = system: NCI-H460; test: Induction of apoptosis in human NCI-H460 cells assessed as […] cells at 80 uM incubated for 48 hrs by Annexin V-FITC/PI staining based flow cytometry (reference value: 4.31 to 4.76 %); assay type: functional
[19] = system: NCI-H460; test: Induction of apoptosis in human NCI-H460 cells assessed as viable cells at 8 uM incubated for 48 hrs by Annexin V-FITC/PI staining based flow cytometry (reference value: 92.82 to 93.46 %); assay type: functional; conditions: read-out: Activity
[20] = system: NCI-H460; test: Induction of apoptosis in human NCI-H460 cells assessed as necrotic cells at 80 uM incubated for 48 hrs by Annexin V-FITC/PI staining based flow cytometry (reference value: 0.02 to 0.06 %); assay type: functional
[21] = system: Huh-7; test: Anticancer activity against human Huh-7 cells incubated for 48 hrs by MTT assay; assay type: functional, cell-based; conditions: Huh-7, 48 h
[22] = system: NCI-H460; test: Induction of apoptosis in human NCI-H460 cells assessed as […] cells at 8 uM incubated for 48 hrs by Annexin V-FITC/PI staining based flow cytometry (reference value: 4.31 to 4.76 %); assay type: functional
[23] = system: A549; test: Anticancer activity against human A549 cells incubated for 48 hrs by MTT assay; assay type: functional, cell-based; conditions: A549, 48 h
[24] = system: SK-OV-3; test: Anticancer activity against human SK-OV-3 cells incubated for 48 hrs by MTT assay; assay type: functional, cell-based; conditions: SK-OV-3, 48 h
[25] = system: NCI-H460; test: Induction of apoptosis in human NCI-H460 cells assessed as viable cells at 0.8 uM incubated for 48 hrs by Annexin V-FITC/PI staining based flow cytometry (reference value: 92.82 to 93.46 %); assay type: functional; conditions: read-out: Activity
[26] = Cytotoxicity against human KGN cells incubated for 48 hrs by MTT assay; assay type: toxicity, cell-based
[27] = system: Calu-1; test: Anticancer activity against human Calu-1 cells incubated for 48 hrs by MTT assay; assay type: functional, cell-based; conditions: Calu-1, 48 h
[28] = system: NCI-H460; test: Anticancer activity against human NCI-H460 cells incubated for 48 hrs by MTT assay; assay type: functional, cell-based; conditions: NCI-H460, 48 h
[29] = Selectivity index, ratio of IC50 for human WI-38 cells to IC50 for human A549 cells; assay type: toxicity; conditions: WI-38 cells versus A549 cells, read-out: Ratio IC50
[30] = Cytotoxicity against human MCF-10A cells incubated for 48 hrs by MTT assay; assay type: toxicity, cell-based
[31] = system: HeLa; test: Anticancer activity against human HeLa cells incubated for 48 hrs by MTT assay; assay type: functional, cell-based
[32] = system: HCT-116; test: Anticancer activity against human HCT-116 cells incubated for 48 hrs by MTT assay; assay type: functional, cell-based; conditions: HCT-116, 48 h
[33] = system: NCI-H460; test: Induction of apoptosis in human NCI-H460 cells assessed as […] cells at 0.8 uM incubated for 48 hrs by Annexin V-FITC/PI staining based flow cytometry (reference value: 2.17 to 2.38 %); assay type: functional

## COC1OC(=O)C(Cl)=C1N1CCN(C(=O)c2cc(OC(C)=O)c3c(c2)C(=O)c2cccc(OC(C)=O)c2C3=O)CC1 (centres undefined)
[1]
  Activity: 9.38%
[2]
  Activity: 56.57%
[3]
  Activity: 5.09%
[4]
  pIC50: 4.68
[5]
  Activity: 29.91%
[6]
  viability at 80 µM: 42.6%
[7]
  pIC50: 5.24
[8]
  Activity: 18.88%
[9]
  IC50 at 48 h: 9.15 µM
[10]
  Activity: 0.06%
[11]
  IC50 at 48 h: 69.3 µM
[12]
  Activity: 37.72%
[13]
  selectivity ratio: 5
[14]
  pIC50: 4.72
[15]
  selectivity ratio: 1
[16]
  selectivity ratio: 16
[17]
  Activity: 0.12%
[18]
  Activity: 25.81%
[19]
  viability at 8 µM: 61.1%
[20]
  Activity: 0.07%
[21]
  pIC50: 4.68
[22]
  Activity: 18.14%
[23]
  pIC50: 5.24
[24]
  pIC50: 4.22
[25]
  viability at 0.8 µM: 89.5%
[26]
  IC50 at 48 h: 76.4 µM
[27]
  pIC50: 4.81
[28]
  pIC50: 5.36
[29]
  selectivity ratio: 12
[30]
  IC50 at 48 h: 17 µM
[31]
  pIC50: 4.52
[32]
  pIC50: 4.86
[33]
  Activity: 3.49%

## CC(=O)Oc1cccc2c1C(=O)c1c(OC(C)=O)cc(C(=O)N3CCN(C4=C(Br)C(=O)O[C@@H]4O[C@@H]4C[C@H](C)CC[C@H]4C(C)C)CC3)cc1C2=O
[11]
  IC50 at 48 h: 24.9 µM
[23]
  pIC50: 4.33
[29]
  selectivity ratio: 1

## CC(=O)Oc1cccc2c1C(=O)c1c(OC(C)=O)cc(C(=O)N3CCN(C4=C(Br)C(=O)OC4O[C@@H]4CC5CCC4(C)C5(C)C)CC3)cc1C2=O (some centres undefined)
[11]
  IC50 at 48 h: 43.1 µM
[23]
  pIC50: 4.06
[29]
  selectivity ratio: 1

## CC(C)[C@@H]1CC[C@@H](C)C[C@H]1O[C@H]1OC(=O)C(Cl)=C1N1CCN(C(=O)c2cc(O)c3c(c2)C(=O)c2cccc(O)c2C3=O)CC1
[11]
  IC50 at 48 h: 296 µM
[23]
  pIC50: 4.33
[29]
  selectivity ratio: 6

## CC(C)[C@@H]1CC[C@@H](C)C[C@H]1O[C@H]1OC(=O)C(Br)=C1N1CCN(C(=O)c2cc(O)c3c(c2)C(=O)c2cccc(O)c2C3=O)CC1
[11]
  IC50 at 48 h: 167 µM
[23]
  pIC50: 3.93
[29]
  selectivity ratio: 1

## CC(=O)Oc1cccc2c1C(=O)c1c(OC(C)=O)cc(C(=O)N3CCN(C4=C(Cl)C(=O)OC4O[C@@H]4CC5CCC4(C)C5(C)C)CC3)cc1C2=O (some centres undefined)
[11]
  IC50 at 48 h: 34.7 µM
[23]
  pIC50: 4.16
[29]
  selectivity ratio: 1

## CC1(C)C2CCC1(C)[C@H](OC1OC(=O)C(Cl)=C1N1CCN(C(=O)c3cc(O)c4c(c3)C(=O)c3cccc(O)c3C4=O)CC1)C2 (some centres undefined)
[11]
  IC50 at 48 h: 173 µM
[23]
  pIC50: 3.97
[29]
  selectivity ratio: 2

## COC1OC(=O)C(Br)=C1N1CCN(C(=O)c2cc(OC(C)=O)c3c(c2)C(=O)c2cccc(OC(C)=O)c2C3=O)CC1 (centres undefined)
[11]
  IC50 at 48 h: 39.1 µM
[23]
  pIC50: 5.26
[29]
  selectivity ratio: 7

## CC(=O)Oc1cccc2c1C(=O)c1c(OC(C)=O)cc(C(=O)N3CCN(C4=C(Cl)C(=O)O[C@@H]4O[C@@H]4C[C@H](C)CC[C@H]4C(C)C)CC3)cc1C2=O
[11]
  IC50 at 48 h: 66.3 µM
[23]
  pIC50: 3.94
[29]
  selectivity ratio: 1

## CC1(C)C2CCC1(C)[C@H](OC1OC(=O)C(Br)=C1N1CCN(C(=O)c3cc(O)c4c(c3)C(=O)c3cccc(O)c3C4=O)CC1)C2 (some centres undefined)
[11]
  IC50 at 48 h: 152 µM
[23]
  pIC50: 3.95
[29]
  selectivity ratio: 1

## Nc1ccn([C@@H]2O[C@H](CO)[C@@H](O)[C@@H]2O)c(=O)n1 [CYTARABINE]
[11]
  IC50 at 48 h: 493 µM
[29]
  selectivity ratio: 2

## O=C(O)c1cc(O)c2c(c1)C(=O)c1cccc(O)c1C2=O [RHEIN]
[23]
  pIC50: 3.58
[29]
  selectivity ratio: 1
